Each structure is given as a SMILES string.

The subject of one assay is eclipta prostrata. Put plainly: Herbicidal activity, pot culture method (primary and secondary screening test). The class given is in vivo. As to conditions: primary screening, pot culture, 150 g/ha, sprayed at 3-leaf stage, result 15 days later. The source says:
(§1) This test example is for describing the herbicidal activity inhibition ratio (%) (the dose is 150 g/ha) of the compound with a structure shown in Formula (I). Primary screening test (pot culture method): The test targets are abutilon theophrasti, digitaria sanguinalis, amaranthus retroflexus, echinochloa crusgalli, eclipta prostrata and setaria viridis. Take flowerpots with an inner diameter of 6 cm, put composite soil (vegetable garden soil:seedling matrix=1:2, v/v) into them till 3⁄4 of flowerpot height, directly sow the above six weed targets (budding rate>85%), cover them with 0.2 cm thick soil, and keep them for future use when the weeds grow to 3-leaf stage. Each compound is dissolved in N,N-dimethylformamide at a dose of 150 g/ha and diluted with distilled water into a 0.2 g/L solution. The solution is sprayed through an automatic spray tower. After the solution on weed leaves is aired dry, the flowerpots are moved into a greenhouse for cultivation. The result is investigated 15 days later. By the same method adopted in primary screening test, a secondary screening test is done on some typical compounds, such as: 5, 6, 20, 21, 23, 34, 47, 65, 66, 70 and 91 at a reduced dose, and the test result is compared with mesotrione which is commercially available and has a good herbicidal effect. The test method is same as that adopted in primary screening test. Mesotrione is bought from Hubei […] Chemical Co., Ltd.
For `Cn1c(=O)n(-c2cccc3ccccc23)c(=O)c2cc(C(=O)C3=C(O)CCCC3=O)ccc21` [Compound 44], the “herbicidal activity inhibition ratio (%), Eclipta prostrata” value was 0%.

For `Cc1ccc(Cl)cc1-n1c(=O)c2cc(C(=O)C3=C(O)CC(C)(C)CC3=O)ccc2n(C)c1=O` [Compound 37], the “herbicidal activity inhibition ratio (%), Eclipta prostrata” value is recorded as 80%.

As for `Cc1ccc(-n2c(=O)c3cc(C(=O)C4=C(O)CC(C)CC4=O)ccc3n(C)c2=O)cc1` (stereo not drawn) [Compound 16], the “herbicidal activity inhibition ratio (%), Eclipta prostrata” value is given as 75%.

With `CCCn1c(=O)n(-c2ccccc2C)c(=O)c2cc(C(=O)C3=C(O)CC(C)(C)CC3=O)ccc21` [Compound 72], the “herbicidal activity inhibition ratio (%), Eclipta prostrata” value was determined as 60%.

`Cc1cccc(-n2c(=O)c3cc(C(=O)C4=C(O)CCCC4=O)ccc3n(C)c2=O)c1` [Compound 17]: the “herbicidal activity inhibition ratio (%), Eclipta prostrata” value was 95%.

On to `Cn1c(=O)n(-c2ccccc2C(F)(F)F)c(=O)c2cc(C(=O)C3=C(O)CC(C)(C)CC3=O)ccc21` [Compound 41], for which the “herbicidal activity inhibition ratio (%), Eclipta prostrata” value is reported as 80%.

For `Cc1cccc(C)c1-n1c(=O)c2cc(C(=O)C3=C(O)CC(C)(C)CC3=O)ccc2n(C)c1=O` [Compound 98], the “herbicidal activity inhibition ratio (%), Eclipta prostrata” value worked out at 88%.

A further assay relates to amaranthus retroflexus. The assay is described as above. Type of assay: in vivo. The settings on record: primary screening, pot culture, 150 g/ha, sprayed at 3-leaf stage, result 15 days later.
Excerpt: as §1
As for `Cn1c(=O)n(-c2cccc3ccccc23)c(=O)c2cc(C(=O)C3=C(O)CCCC3=O)ccc21` [Compound 44], the “herbicidal activity inhibition ratio (%), Amaranthus retroflexus” value is reported as 100%.

For the molecule `Cc1ccc(Cl)cc1-n1c(=O)c2cc(C(=O)C3=C(O)CC(C)(C)CC3=O)ccc2n(C)c1=O` [Compound 37], the “herbicidal activity inhibition ratio (%), Amaranthus retroflexus” value is recorded as 95%.

Consider `Cc1ccc(-n2c(=O)c3cc(C(=O)C4=C(O)CC(C)CC4=O)ccc3n(C)c2=O)cc1` (stereo not drawn) [Compound 16], for which the “herbicidal activity inhibition ratio (%), Amaranthus retroflexus” value stood at 70%.

Take `CCCn1c(=O)n(-c2ccccc2C)c(=O)c2cc(C(=O)C3=C(O)CC(C)(C)CC3=O)ccc21` [Compound 72]: the “herbicidal activity inhibition ratio (%), Amaranthus retroflexus” value is 20%.

Take `Cc1cccc(-n2c(=O)c3cc(C(=O)C4=C(O)CCCC4=O)ccc3n(C)c2=O)c1` [Compound 17]: the “herbicidal activity inhibition ratio (%), Amaranthus retroflexus” value worked out at 100%.

For `Cn1c(=O)n(-c2ccccc2C(F)(F)F)c(=O)c2cc(C(=O)C3=C(O)CC(C)(C)CC3=O)ccc21` [Compound 41], the “herbicidal activity inhibition ratio (%), Amaranthus retroflexus” value is listed as 95%.

For `Cc1cccc(C)c1-n1c(=O)c2cc(C(=O)C3=C(O)CC(C)(C)CC3=O)ccc2n(C)c1=O` [Compound 98], the “herbicidal activity inhibition ratio (%), Amaranthus retroflexus” value amounted to 100%.

Another assay has as its system digitaria sanguinalis. Described as above. The class given is in vivo. As to conditions: primary screening, pot culture, 150 g/ha, sprayed at 3-leaf stage, result 15 days later.
Excerpt: as §1
Regarding `Cn1c(=O)n(-c2cccc3ccccc23)c(=O)c2cc(C(=O)C3=C(O)CCCC3=O)ccc21` [Compound 44], the “herbicidal activity inhibition ratio (%), Digitaria sanguinalis” value came out at 75%.

Take `Cc1ccc(Cl)cc1-n1c(=O)c2cc(C(=O)C3=C(O)CC(C)(C)CC3=O)ccc2n(C)c1=O` [Compound 37]: the “herbicidal activity inhibition ratio (%), Digitaria sanguinalis” value amounted to 83%.

With `Cc1ccc(-n2c(=O)c3cc(C(=O)C4=C(O)CC(C)CC4=O)ccc3n(C)c2=O)cc1` (stereo not drawn) [Compound 16], the “herbicidal activity inhibition ratio (%), Digitaria sanguinalis” value came out at 100%.

As for `CCCn1c(=O)n(-c2ccccc2C)c(=O)c2cc(C(=O)C3=C(O)CC(C)(C)CC3=O)ccc21` [Compound 72], the “herbicidal activity inhibition ratio (%), Digitaria sanguinalis” value is listed as 20%.

On to `Cc1cccc(-n2c(=O)c3cc(C(=O)C4=C(O)CCCC4=O)ccc3n(C)c2=O)c1` [Compound 17], for which the “herbicidal activity inhibition ratio (%), Digitaria sanguinalis” value worked out at 75%.

As for `Cn1c(=O)n(-c2ccccc2C(F)(F)F)c(=O)c2cc(C(=O)C3=C(O)CC(C)(C)CC3=O)ccc21` [Compound 41], the “herbicidal activity inhibition ratio (%), Digitaria sanguinalis” value was 85%.

`Cc1cccc(C)c1-n1c(=O)c2cc(C(=O)C3=C(O)CC(C)(C)CC3=O)ccc2n(C)c1=O` [Compound 98]: the “herbicidal activity inhibition ratio (%), Digitaria sanguinalis” value amounted to 50%.

A further assay has as its system setaria viridis. The description is as above. The class given is in vivo. The settings on record: primary screening, pot culture, 150 g/ha, sprayed at 3-leaf stage, result 15 days later.
Excerpt: as §1
For `Cn1c(=O)n(-c2cccc3ccccc23)c(=O)c2cc(C(=O)C3=C(O)CCCC3=O)ccc21` [Compound 44], the “herbicidal activity inhibition ratio (%), Setaria viridis” value came out at 60%.

For `Cc1ccc(Cl)cc1-n1c(=O)c2cc(C(=O)C3=C(O)CC(C)(C)CC3=O)ccc2n(C)c1=O` [Compound 37], the “herbicidal activity inhibition ratio (%), Setaria viridis” value is given as 40%.

`Cc1ccc(-n2c(=O)c3cc(C(=O)C4=C(O)CC(C)CC4=O)ccc3n(C)c2=O)cc1` (stereo not drawn) [Compound 16]: the “herbicidal activity inhibition ratio (%), Setaria viridis” value was determined as 100%.

On to `CCCn1c(=O)n(-c2ccccc2C)c(=O)c2cc(C(=O)C3=C(O)CC(C)(C)CC3=O)ccc21` [Compound 72], for which the “herbicidal activity inhibition ratio (%), Setaria viridis” value was 30%.

`Cc1cccc(-n2c(=O)c3cc(C(=O)C4=C(O)CCCC4=O)ccc3n(C)c2=O)c1` [Compound 17]: the “herbicidal activity inhibition ratio (%), Setaria viridis” value was 100%.

`Cn1c(=O)n(-c2ccccc2C(F)(F)F)c(=O)c2cc(C(=O)C3=C(O)CC(C)(C)CC3=O)ccc21` [Compound 41]: the “herbicidal activity inhibition ratio (%), Setaria viridis” value is reported as 25%.

As for `Cc1cccc(C)c1-n1c(=O)c2cc(C(=O)C3=C(O)CC(C)(C)CC3=O)ccc2n(C)c1=O` [Compound 98], the “herbicidal activity inhibition ratio (%), Setaria viridis” value is on record as 80%.

In a further assay the test system is echinochloa crusgalli. The assay is described as above. As to conditions: primary screening, pot culture, 150 g/ha, sprayed at 3-leaf stage, result 15 days later. The class given is in vivo.
Excerpt: as §1
Regarding `Cn1c(=O)n(-c2cccc3ccccc23)c(=O)c2cc(C(=O)C3=C(O)CCCC3=O)ccc21` [Compound 44], the “herbicidal activity inhibition ratio (%), Echinochloa crusgalli” value turned out to be 65%.

`Cc1ccc(Cl)cc1-n1c(=O)c2cc(C(=O)C3=C(O)CC(C)(C)CC3=O)ccc2n(C)c1=O` [Compound 37]: the “herbicidal activity inhibition ratio (%), Echinochloa crusgalli” value was 80%.

Turning to `Cc1ccc(-n2c(=O)c3cc(C(=O)C4=C(O)CC(C)CC4=O)ccc3n(C)c2=O)cc1` (stereo not drawn) [Compound 16], the “herbicidal activity inhibition ratio (%), Echinochloa crusgalli” value came to 85%.

With `CCCn1c(=O)n(-c2ccccc2C)c(=O)c2cc(C(=O)C3=C(O)CC(C)(C)CC3=O)ccc21` [Compound 72], the “herbicidal activity inhibition ratio (%), Echinochloa crusgalli” value is 30%.

Consider `Cc1cccc(-n2c(=O)c3cc(C(=O)C4=C(O)CCCC4=O)ccc3n(C)c2=O)c1` [Compound 17], for which the “herbicidal activity inhibition ratio (%), Echinochloa crusgalli” value is 70%.

Take `Cn1c(=O)n(-c2ccccc2C(F)(F)F)c(=O)c2cc(C(=O)C3=C(O)CC(C)(C)CC3=O)ccc21` [Compound 41]: the “herbicidal activity inhibition ratio (%), Echinochloa crusgalli” value is listed as 73%.

For the molecule `Cc1cccc(C)c1-n1c(=O)c2cc(C(=O)C3=C(O)CC(C)(C)CC3=O)ccc2n(C)c1=O` [Compound 98], the “herbicidal activity inhibition ratio (%), Echinochloa crusgalli” value was determined as 85%.

The test system of a further assay is abutilon theophrasti. Described as above. As to conditions: primary screening, pot culture, 150 g/ha, sprayed at 3-leaf stage, result 15 days later. Type of assay: in vivo.
Excerpt: as §1
On to `Cn1c(=O)n(-c2cccc3ccccc23)c(=O)c2cc(C(=O)C3=C(O)CCCC3=O)ccc21` [Compound 44], for which the “herbicidal activity inhibition ratio (%), Abutilon theophrasti” value worked out at 85%.

Consider `Cc1ccc(Cl)cc1-n1c(=O)c2cc(C(=O)C3=C(O)CC(C)(C)CC3=O)ccc2n(C)c1=O` [Compound 37], for which the “herbicidal activity inhibition ratio (%), Abutilon theophrasti” value was 65%.

For the molecule `Cc1ccc(-n2c(=O)c3cc(C(=O)C4=C(O)CC(C)CC4=O)ccc3n(C)c2=O)cc1` (stereo not drawn) [Compound 16], the “herbicidal activity inhibition ratio (%), Abutilon theophrasti” value worked out at 70%.

For `CCCn1c(=O)n(-c2ccccc2C)c(=O)c2cc(C(=O)C3=C(O)CC(C)(C)CC3=O)ccc21` [Compound 72], the “herbicidal activity inhibition ratio (%), Abutilon theophrasti” value was 100%.

On to `Cc1cccc(-n2c(=O)c3cc(C(=O)C4=C(O)CCCC4=O)ccc3n(C)c2=O)c1` [Compound 17], for which the “herbicidal activity inhibition ratio (%), Abutilon theophrasti” value is recorded as 70%.

For `Cn1c(=O)n(-c2ccccc2C(F)(F)F)c(=O)c2cc(C(=O)C3=C(O)CC(C)(C)CC3=O)ccc21` [Compound 41], the “herbicidal activity inhibition ratio (%), Abutilon theophrasti” value turned out to be 100%.

Turning to `Cc1cccc(C)c1-n1c(=O)c2cc(C(=O)C3=C(O)CC(C)(C)CC3=O)ccc2n(C)c1=O` [Compound 98], the “herbicidal activity inhibition ratio (%), Abutilon theophrasti” value is on record as 100%.

For the origin of these results see patent US9771334B2, “Triketone compound and preparation method and use thereof” (SHANDONG CYNDA CHEMICAL CO., LTD., priority 2013, dated 2017).
